Here are results for 11 molecules from ChEMBL document CHEMBL5625250, “Discovery of novel flavonoid-based CDK9 degraders for prostate cancer treatment via a PROTAC strategy” (Eur J Med Chem, 2023).

≈ marks a conversion by molar mass, not a printed value. Calls of active or inactive are those of the source. No cut-off for these calls is given here. Bounds are passed on as bounds.

In one series the test system is CWR22R. Briefly: Antiproliferative activity against human 22Rv1 cells assessed as reduction in cell viability incubated for 72 hrs by SRB assay. It counts as functional, cell-based. Particulars: 22Rv1, 72 h. Background: Sulforhodamine B stains cellular protein and so reports cell mass.
Series [1] is described as follows: Solubility of the compound in water at pH 7.4 by shake flask method. The class given is physicochemical.
The target of series [2] is T1, Cyclin-dependent kinase 9 (Homo sapiens, UniProt P50750). Briefly: Inhibition of CDK9 (unknown origin) at 20 nM in presence of ATP by ADP-Glo kinase assay relative to control. On the technique in general: In ADP-Glo the light output rises with the ADP produced.
Series [3] is described as follows: Solubility of the compound in water at pH 6.0 by shake flask method. It counts as physicochemical.
Series [4] addresses T2, Protein cereblon/Cyclin-dependent kinase 9 (Homo sapiens, UniProt P50750+Q96SW2). Briefly: PROTAC activity at CRBN/CDK9 in human 22Rv1 cells assessed as degradation of CDK9 protein at 100 nM incubated for 12 hrs by Western blotting analysis relative to control. It counts as cell-based.
The target of series [5] is T2, Protein cereblon/Cyclin-dependent kinase 9. Briefly: PROTAC activity at CRBN/CDK9 in human 22Rv1 cells assessed as degradation of CDK9 protein at 20 nM incubated for 12 hrs by Western blotting analysis relative to control. It counts as cell-based. (A western blot detects proteins with antibodies after separation by electrophoresis.)
Series [6] has the same target. Nature of the series: PROTAC activity at CRBN/CDK9 in human 22Rv1 cells assessed as degradation of CDK9 protein at 100 nM incubated for 12 hrs by Western blotting analysis. It counts as cell-based.
Series [7] deals with T1, Cyclin-dependent kinase 9. Nature of the series: Inhibition of CDK9 (unknown origin) in presence of ATP by ADP-Glo kinase assay.
The target of series [8] is T2, Protein cereblon/Cyclin-dependent kinase 9. Briefly: PROTAC activity at CRBN/CDK9 in human 22Rv1 cells assessed as reduction in cyclin T1 expression at 1.5 uM incubated for 24 hrs by Western blotting analysis. The class given is cell-based.

T2 sequence (P50750 whole entry, looked up): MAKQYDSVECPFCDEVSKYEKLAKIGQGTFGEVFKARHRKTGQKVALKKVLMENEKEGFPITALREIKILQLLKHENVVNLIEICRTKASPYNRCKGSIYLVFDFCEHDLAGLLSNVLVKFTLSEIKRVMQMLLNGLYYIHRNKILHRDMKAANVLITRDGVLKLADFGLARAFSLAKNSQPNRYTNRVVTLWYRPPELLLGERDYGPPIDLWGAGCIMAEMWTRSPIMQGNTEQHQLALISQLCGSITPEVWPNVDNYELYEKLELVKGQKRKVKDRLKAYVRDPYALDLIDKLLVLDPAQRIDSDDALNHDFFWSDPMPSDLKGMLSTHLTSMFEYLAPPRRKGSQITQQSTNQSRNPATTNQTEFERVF
T2 sequence (Q96SW2 whole entry, looked up): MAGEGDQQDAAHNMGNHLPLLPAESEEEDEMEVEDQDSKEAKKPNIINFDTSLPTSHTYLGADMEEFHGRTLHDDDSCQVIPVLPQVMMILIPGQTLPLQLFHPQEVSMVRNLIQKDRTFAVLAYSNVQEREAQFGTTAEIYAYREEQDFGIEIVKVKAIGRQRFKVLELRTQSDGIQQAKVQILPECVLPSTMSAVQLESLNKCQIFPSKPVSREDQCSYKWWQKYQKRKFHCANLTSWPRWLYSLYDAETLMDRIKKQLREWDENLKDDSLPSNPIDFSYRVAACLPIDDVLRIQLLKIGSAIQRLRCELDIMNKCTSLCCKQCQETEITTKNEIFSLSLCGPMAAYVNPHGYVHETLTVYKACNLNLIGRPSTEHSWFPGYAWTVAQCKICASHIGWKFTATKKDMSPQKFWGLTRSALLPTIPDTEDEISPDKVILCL
T1 sequence (P50750 whole entry): as the sequence (P50750 whole entry, looked up) above

By IC50 is commonly meant the concentration that inhibits the measured activity by half. By thermodynamic solubility is commonly meant the concentration in solution at equilibrium with solid. One may read the inhibition as the percentage by which the read-out fell short of the control. Turning to `COc1cc(O)c2c(=O)cc(-c3ccc(N4CCN(C(=O)CCCCCCCOc5cccc6c5C(=O)N(C5CCC(=O)NC5=O)C6=O)CC4)cc3)oc2c1C1=CCN(C)CC1` (stereo unspecified), the IC50 with CWR22R is 1810 nM. The thermodynamic solubility in series [1] and in series [3] was below 10 µg/mL each time. For the same molecule, in series [2], the inhibition stood at 69.5%.
Regarding `COc1cc(O)c2c(=O)cc(-c3ccc(N4CCN(C(=O)CNc5cccc6c5C(=O)N(C5CCC(=O)NC5=O)C6=O)CC4)cc3)oc2c1C1=CCN(C)CC1` (stereo unspecified), the IC50 in the series with CWR22R was determined as 100 nM. Also, the thermodynamic solubility in [1] was 21 µg/mL (≈ 27.6 µM); in series [3], below 10 µg/mL. For the same molecule, the Activity in series [4] came to 80%. For the same molecule, the inhibition in [2] came out at 84.1%.
Take `CN1CC[C@H](c2c(O)cc(O)c3c(=O)cc(-c4ccccc4Cl)oc23)[C@H](O)C1` [ALVOCIDIB]: in the series with CWR22R, the IC50 is 240 nM.
On to `COc1cc(O)c2c(=O)cc(-c3ccc(N4CCN(C(=O)C5CCN(c6ccc7c(c6)C(=O)N(C6CCC(=O)NC6=O)C7=O)CC5)CC4)cc3)oc2c1C1=CCN(C)CC1` (stereo unspecified), for which the IC50 in the series with CWR22R was found to be 20 nM. The values for the solubility (thermodynamic) in series [1] and in [3] were 21 µg/mL (≈ 25.8 µM) and below 10 µg/mL, respectively. Moreover, the Activity in [5] is above 50%. Also, the inhibition in series [2] came out at 90.4%.
On to `COc1cc(O)c2c(=O)cc(-c3ccc(N4CCN(C(=O)CCCCCOc5cccc6c5C(=O)N(C5CCC(=O)NC5=O)C6=O)CC4)cc3)oc2c1C1=CCN(C)CC1` (stereo unspecified), for which the IC50 with CWR22R turned out to be 650 nM. Moreover, the thermodynamic solubility in series [1] and in series [3] was below 10 µg/mL in each case. The inhibition in series [2] amounted to 69.9%.
For the molecule `COc1cc(O)c2c(=O)cc(-c3ccc(N4CCN(C(=O)CCCOc5cccc6c5C(=O)N(C5CCC(=O)NC5=O)C6=O)CC4)cc3)oc2c1C1=CCN(C)CC1` (stereo unspecified), the IC50 in the series on CWR22R is 410 nM. In addition, the solubility (thermodynamic) in [1] and in [3] was below 10 µg/mL in each case. Further, the inhibition in series [2] was 79%. In [6], the result was Active.
In the case of `COc1cc(O)c2c(=O)cc(-c3ccc(N4CCN(CC5CCN(c6cccc7c6C(=O)N(C6CCC(=O)NC6=O)C7=O)CC5)CC4)cc3)oc2c1C1=CCN(C)CC1` (stereo unspecified), the IC50 in the series with CWR22R is 70 nM. In addition, the solubility (thermodynamic) is 41 µg/mL (≈ 51.2 µM) in [1] and 193 µg/mL (≈ 241 µM) in series [3]. In [2], the inhibition was 89.3%.
On the same counts, the results for `COc1cc(O)c2c(=O)cc(-c3ccc(N4CCN(CCC5CCN(c6ccc7c(c6)C(=O)N(C6CCC(=O)NC6=O)C7=O)CC5)CC4)cc3)oc2c1C1=CCN(C)CC1` (stereo unspecified) are 350 nM, 45 µg/mL (≈ 55.2 µM), 117 µg/mL (≈ 144 µM) and 75%.
As to `COc1cc(O)c2c(=O)cc(-c3ccc(N4CCN(C(=O)CCCCOc5cccc6c5C(=O)N(C5CCC(=O)NC5=O)C6=O)CC4)cc3)oc2c1C1=CCN(C)CC1` (stereo unspecified), the IC50 in the series with CWR22R amounted to 860 nM. The solubility (thermodynamic) in [1] and in [3] was below 10 µg/mL throughout. Further, the inhibition in series [2] turned out to be 74.2%. In addition, in [6], the result was Active.
In the case of `COc1cc(O)c2c(=O)cc(-c3ccc(N4CCN(C)CC4)cc3)oc2c1C1=CCN(C)CC1`, the IC50 with CWR22R was determined as 1250 nM; in series [7], 66.7 nM. Also, the inhibition in series [2] came out at 69.2%. The result in series [8] was inactive.
Consider `COc1cc(O)c2c(=O)cc(-c3ccc(N4CCN(C(=O)CCCCCCCCCOc5cccc6c5C(=O)N(C5CCC(=O)NC5=O)C6=O)CC4)cc3)oc2c1C1=CCN(C)CC1` (stereo unspecified), for which the IC50 with CWR22R turned out to be 120 nM. For the same molecule, the solubility (thermodynamic) in series [1] and in series [3] was below 10 µg/mL in each case. Besides, the inhibition in series [2] amounted to 34.2%. For the same molecule, the outcome in [6] was Active.
